The record followed here is ChEMBL document CHEMBL1140612, “4-Methyl-1,2,3-selenadiazole-5-carboxylic acid amides: antitumor action and cytotoxic effect correlation” (Eur J Med Chem, 2007).

Data set [1] concerns HT-1080. The data set can be described thus: Cytotoxicity against human HT1080 cells after 72 hrs. The conditions noted are these: for CC50: HT-1080, 72 h, read-out: TD50 (the source's name). It is filed as functional.
In data set [2] the test system is MG-22A. The data set is described as follows: Cytotoxicity against mouse MG22A cells after 72 hrs. It is filed as functional. The conditions noted are these: read-out: TD50 (the source's name).
Data set [3] in a line: Cytotoxicity against mouse NIH3T3 cells after 72 hrs. It is filed as cell-based. To be noted: read-out: TD50.
For data set [4], the system named is HT-1080. The data set is described as follows: Effect on nitric oxide production in human HT1080 cells at 100 ug/ml by crystal violet coloration assay. The data set is classed as functional.
For data set [5], the system named is MG-22A. The data set can be described thus: Effect on nitric oxide production in mouse MG22A cells at 100 ug/ml by crystal violet coloration assay. It is filed as functional.
The test system of data set [6] is HT-1080. The data set can be described thus: Induction of apoptosis in human HT1080 cells after 72 hrs. The data set is classed as functional, cell-based.
Data set [7] relates to MG-22A. The data set is described as follows: Induction of apoptosis in mouse MG22A cells after 72 hrs. The data set is classed as functional, cell-based.
For data set [8], the system named is CCRF S-180. The data set is described as follows: Antitumor activity against S180 cells inoculated in ICR mouse assessed as inhibition of tumor growth at 2 mg/kg, ip after 2 days. The data set is classed as functional. The conditions noted are these: CCRF S-180, ip, 48 h, route intraperitoneal.
Data set [9] deals with Mus musculus. The data set can be described thus: Toxicity in ICR mouse assessed as body weight at 2 mg/kg, ip after 2 days. It is filed as organism-based. Set-up: dose 2 mg/kg, route intraperitoneal. To be noted: in vivo, 48 h.
Data set [10] deals with CCRF S-180. The data set can be described thus: Antitumor activity against S180 cells inoculated in ICR mouse assessed as inhibition of tumor growth at 10 mg/kg, ip after 9 days. The data set is classed as functional. The conditions noted are these: for inhibition in vivo at 10 mg/kg: CCRF S-180, ip, 216 h, route intraperitoneal.
Data set [11] relates to Mus musculus. The data set can be described thus: Toxicity in ICR mouse assessed as body weight at 10 mg/kg, ip after 9 days. The data set is classed as organism-based. Set-up: dose 10 mg/kg, route intraperitoneal. To be noted: in vivo, 216 h.
In data set [12] the test system is HT-1080. The data set can be described thus: Effect on cell morphology in human HT1080 cells after 72 hrs. It is filed as functional, cell-based.
Data set [13] concerns CCRF S-180. The data set can be described thus: Antitumor activity against S180 cells inoculated in ICR mouse assessed as inhibition of tumor growth at 10 mg/kg, ip after 8 days. It is filed as functional. To be noted: CCRF S-180, ip, 192 h, route intraperitoneal.
In data set [14] the test system is Mus musculus. The data set can be described thus: Toxicity in ICR mouse assessed as body weight at 10 mg/kg, ip after 8 days. It is filed as organism-based. Set-up: dose 10 mg/kg, route intraperitoneal. The conditions noted are these: in vivo, 192 h.

Values after ≈ are worked out from the molar mass of the structure shown. Active and inactive are the calls of the source. The rule behind the calls is not given here.

With `Cc1nn[se]c1C(=O)N(C)C`, the Activity entry in the data set with HT-1080 [1] is “Not toxic”; in the data set with HT-1080 [4], 10%; with MG-22A [5], 63%; in the data set on Mus musculus [9], 17%. Moreover, the CC50 with MG-22A [2] is 35 µg/mL (≈ 160 µM). The CC50 at 72 h in data set [3] came to 351 µg/mL (≈ 1610 µM). Besides, the result in the data set with HT-1080 [6] and in the data set on MG-22A [7] was Active. For the same compound, the inhibition in vivo at 2 mg/kg with CCRF S-180 [8] was 58%.
Consider `Cc1nn[se]c1C(=O)N1CCCC1`, for which the CC50 worked out at 19 µg/mL (≈ 77.8 µM) in the data set with HT-1080 [1] and 33 µg/mL (≈ 135 µM) in the data set on MG-22A [2]. In addition, the CC50 at 72 h in data set [3] is 214 µg/mL (≈ 876 µM). Also, the Activity with HT-1080 [4] came out at 350%; in the data set with MG-22A [5], 350%; in the data set on Mus musculus [11], 23%. The outcome with MG-22A [7] was Active. Further, the inhibition in vivo at 10 mg/kg in the data set on CCRF S-180 [10] turned out to be 85%.
On to `Cc1nn[se]c1C(=O)N[C@@H](C)c1ccccc1`, for which the CC50 in the data set with HT-1080 [1] was 31 µg/mL (≈ 105 µM); in the data set on MG-22A [2] it was 32 µg/mL (≈ 109 µM). Further, in data set [3], the CC50 at 72 h came to 407 µg/mL (≈ 1380 µM). The results for the Activity with HT-1080 [4], with MG-22A [5] and with Mus musculus [14] were 300%, 200% and 0%, respectively. In addition, the result in the data set with HT-1080 [12] was Active. The inhibition in vivo at 10 mg/kg in the data set on CCRF S-180 [13] was -23%.
In the case of `Cc1nn[se]c1C(=O)N[C@H](C)c1ccccc1`, the CC50 in the data set with HT-1080 [1] was 100 µg/mL (≈ 340 µM); in the data set on MG-22A [2], 29 µg/mL (≈ 98.6 µM). For the same compound, the CC50 at 72 h in data set [3] was determined as 195 µg/mL (≈ 663 µM). In addition, the Activity was determined as 17% with HT-1080 [4], 400% in the data set on MG-22A [5] and 3% in the data set on Mus musculus [11]. For the same compound, in the data set on HT-1080 [12], the outcome was inactive. Besides, the inhibition in vivo at 10 mg/kg in the data set with CCRF S-180 [10] came to 20%.
Consider `Cc1nn[se]c1C(=O)N(C(C)C)C(C)C`, for which the Activity result in the data set with HT-1080 [1] was “Not toxic”; in the data set on HT-1080 [4], 29%; with MG-22A [5] it was 200%; in the data set with Mus musculus [11], 0%. Further, the CC50 in the data set with MG-22A [2] came to 31 µg/mL (≈ 113 µM). Besides, the CC50 at 72 h in data set [3] is 718 µg/mL (≈ 2620 µM). Moreover, in the data set on CCRF S-180 [10], the inhibition in vivo at 10 mg/kg is -32%.
With `Cc1nn[se]c1C(=O)N1CCOCC1`, the Activity result was “Not toxic” in the data set with HT-1080 [1]; 11% in the data set on HT-1080 [4]; 250% with MG-22A [5]; “Non-toxic” in the data set with CCRF S-180 [10]; 8% with Mus musculus [11]. Moreover, the CC50 in the data set on MG-22A [2] came to 34 µg/mL (≈ 131 µM). In addition, in [3], the CC50 at 72 h turned out to be 280 µg/mL (≈ 1080 µM).
On to `Cc1nn[se]c1C(=O)N1CCCCC1`, for which the CC50 in the data set with HT-1080 [1] came to 31 µg/mL (≈ 120 µM); in the data set with MG-22A [2], 27 µg/mL (≈ 105 µM). The CC50 at 72 h in [3] is 123 µg/mL (≈ 476 µM). Also, the Activity in the data set on HT-1080 [4] stood at 100%; in the data set on MG-22A [5], 400%; in the data set with Mus musculus [11], 8%. Moreover, the inhibition in vivo at 10 mg/kg with CCRF S-180 [10] is 71%.
